Target: T1, renin (Homo sapiens, UniProt P00797)
T1 sequence (P00797 67-406): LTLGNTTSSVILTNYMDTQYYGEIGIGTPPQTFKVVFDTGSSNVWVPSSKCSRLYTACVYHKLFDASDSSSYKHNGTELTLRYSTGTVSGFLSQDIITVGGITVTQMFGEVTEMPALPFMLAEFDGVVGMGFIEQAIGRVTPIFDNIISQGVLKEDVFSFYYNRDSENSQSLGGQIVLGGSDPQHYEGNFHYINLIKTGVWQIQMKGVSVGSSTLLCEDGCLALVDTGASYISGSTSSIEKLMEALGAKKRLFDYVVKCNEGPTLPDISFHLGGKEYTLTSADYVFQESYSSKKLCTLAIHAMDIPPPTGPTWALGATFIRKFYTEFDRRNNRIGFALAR
Test: in vitro renin inhibition, radioimmunoassay for angiotensin I
Type: biochemical
Details: incubated for two hours at 37° in the presence of angiotensinogen, read-out: IC50 (molar concentration of test compound causing a 50% inhibition of the renin activity)
Procedure: The compounds of the present invention are valuable because of their ability to inhibit renin in an in vitro assay. Activity is determined by a standard radioimmunoassay for angiotensin I. In the assay, the enzyme renin, incubated for two hours at 37° in the presence of a substrate, angiotensinogen, generates the product angiotensin I. Test compounds are added to the incubation mixture. Relative activity is reported as the IC50, which is the molar concentration of test compound causing a 50% inhibition of the renin activity.
The in vitro test employed is more fully described in "Methods in Enzymatic Analysis", Bergmeyer, J., and Grass, N., eds., 3rd edition Weinheim: Verlag Chemie, pp. 251-258 (1984).

| Structure (SMILES) | IC50 [nM] |
| --- | --- |
| CC(C)C[C@H](NC(=O)[C@H](Cc1c[nH]cn1)NC(=O)C(Cc1cccc2ccccc12)Cc1cccc2ccccc12)[C@@H](O)C(=O)OC(C)C [Example 1b, [2R-[2R*,3S*(S*)]]-2-hydroxy-3-[[-3-(1H-imidazol-4-yl)-2-[[3-(1-naphthalenyl)-2-(1-naphthalenylmethyl)-1-oxopropyl]amino]-1-oxopropyl]amino]-5-methylhexanoic acid, 1-methylethyl ester] | 140 |
| CC(C)C[C@H](NC(=O)[C@H](Cc1c[nH]cn1)NC(=O)[C@H](Cc1ccccc1)NC(=O)OC(C)(C)C)C(O)C(=O)OC(C)C (some centres unmarked) [Example 1] | 1000 |

Source: patent US5135914A, “Substituted derivatives of 3-amino-2-hydroxypropionic acid as inhibitors of renin” (Warner-Lambert Company, priority 1988, dated 1992)
